{"source": "patent US12708601B2", "about": "“Mangosteen pericarp extract and process for its preparation thereof” (JUNHONG BIOTECHNOLOGY CO., LTD., priority 2020, dated 2026)", "tested_on": "B16F10 melanoma cells", "test": "Cell viability assay (MTT) in B16F10 cells treated with α-MSH with or without aqua choice", "assay_type": "cell-based, mouse", "conditions": "100 nM, 24 hours of incubation", "procedure": "The mouse B16F10 melanoma cells were purchased from Bioresource Collection and Research Center (BCRC, Hsinchu, Taiwan) and cultured using Dulbecco's Modified Eagle Medium (DMEM, Gibco, MA, USA) supplemented with 10% fetal bovine serum and 1% antibiotics (100 units/mL penicillin, […], 0.25 μg/mL amphotericin) in a humidified atmosphere of 5% CO2 at 37° C. The control group was untreated with alpha-melanocyte-stimulating hormone (α-MSH) and aquachoice; The different treatment groups were all treated with α-MSH and different doses aquachoice.\nCells were seeded at a density of […] in 96-well plate for 24 h and then treated with aqua choice at different concentrations for 24 and 48 h. At the end of the treatment, the medium was removed and 100 μL 3-(4,5-Dimethylthiazol-2-yl)-2,5-Diphenyltetrazolium bromide (MTT) solution (Sigma-Aldrich, USA) was treated. MTT reagent was cleanly removed after incubation in a 37° C. incubator for 3 hours, and then 100 μL of DMSO per well was added to dissolve all of the formazan generated in the wells. The result was measured by absorbance at 570 nm with an ELISA reader."}
{"substance": "alpha-melanocyte-stimulating hormone [α-MSH]", "values": [{"measurement": "increase in cell viability", "value": "~ 1.55 fold"}]}
